Structures are written as SMILES.

For orientation: GI50 means the concentration that inhibits growth by half.

What all share (type): cell-based, Human
For test [1], the system named is PC-3 (prostate cancer). Kind of test: Test for inhibition of tumor cell growth (SRB), PC-3. As to conditions: Homo sapiens; 48 hours, SRB staining; read-out: GI50 PC-3 (prostate ancer). The protocol: (§1) Human tumor cell lines, PC-3 (prostate cancer, ATCC, USA), MBA-MB-231 (breast cancer, ATCC, USA), ACHN (kidney cancer, ATCC, USA), and NUGC-3 (gastric cancer, ATCC, USA) were cultured in RPMI 1640 media containing 10% fetal bovine serum (FBS).
(§2) In order to measure anticancer activity, a suitable concentration of cells in RPMI 1640 media containing 5% fetal bovine serum (about 5×10^4 cells/□) was aliquotted in 96-well plates, and cultured in 5% CO2 at 37° C. On day one after aliquoting the cells, before the cells were treated with the compounds, in order to determine their concentration, 50[…] of 50% trichloroacetic acid was added to each well of time zero (T0) plate, and cells were fixed to determine zero point. The cells treated with the compounds were fixed on each well having 50[…] of 50% trichloroacetic acid after 48 hours. The final concentrations of the test compounds were 0.01, 0.03, 0.1, 0.3, and 1[…]/□. The fixed plate was washed with water and dried, and then 100[…] of 0.4% sulphorhodamine B (SRB) dissolved in 0.1% acetic acid was added to the each well to stain the cells. The plate was allowed to stand for 30 minutes, and then washed with 0.1% acetic acid. Then, the plate was dried at room temperature, and treated with 10 mM tris base (pH 10.5) to dissolve staining reagent. An absorbance measured at 540 nm was calculated as a percentage of the control group, and then the concentration of the compound that inhibited tumor cell growth (GI50(□/□)) by 50% was determined.

For test [2], the system named is MBA-MB-231 (breast cancer). Put plainly: Test for inhibition of tumor cell growth (SRB), MBA-MB-231. As to conditions: Homo sapiens; 48 hours, SRB staining. Here is the method:
as §1, §2

The subject of test [3] is ACHN (kidney cancer). Put plainly: Test for inhibition of tumor cell growth (SRB), ACHN. As to conditions: Homo sapiens, ACHN; 48 hours, SRB staining. The protocol:
as §1, §2

Test [4] deals with NUGC-3 (gastric cancer). Kind of test: Test for inhibition of tumor cell growth (SRB), NUGC-3. As to conditions: Homo sapiens, NUGC-3; 48 hours, SRB staining. Here is the method:
as §1, §2
(Sulforhodamine B stains cellular protein and so reports cell mass.)

Regarding `CCCCCCCCCCCCCCCC(=O)N1CC[N+](CC)(Cc2ccccc2)CC1.[Br-]` [Example 21, 1-benzyl-1-ethyl-4-hexadecanoyl-piperazin-1-ium bromide], the GI50 in test [1] was found to be 0.55 µg/mL; in test [2] it was 1.16 µg/mL; in test [3], 0.92 µg/mL; in test [4] it was 0.46 µg/mL.

For the compound `C=CC[N+]1(CC)CCN(C(=O)CCCCCCCCCCCCCCC)CC1.[Br-]` [Example 22, 1-allyl-1-ethyl-4-hexadecanoyl-piperazin-1-ium bromide], the GI50 in test [1] stood at 0.37 µg/mL; in test [2], 0.68 µg/mL; in test [3], 0.5 µg/mL; in test [4], 0.27 µg/mL.

Consider `CCCCCCCCCCCCCCCC(=O)N1CC[N+](C)(CC)CC1.[I-]` [Example 23, 1-ethyl-4-hexadecanoyl-1-methyl-piperazin-1-ium iodide], for which the GI50 was 0.8 µg/mL in test [1], 2.05 µg/mL in test [2], 1.89 µg/mL in test [3] and 0.58 µg/mL in test [4].

Regarding `C=CCCC[N+]1(CC)CCN(C(=O)CCCCCCCCCCCCCCC)CC1.[Br-]` [Example 24, 1-ethyl-4-hexadecanoyl-1-pent-4-enyl-piperazin-1-ium bromide], the GI50 in test [1] was determined as 0.45 µg/mL; in test [2], 0.76 µg/mL; in test [3] it was 0.78 µg/mL; in test [4], 0.4 µg/mL.

On to `CCCCCCCCCCCCCCCCCC(=O)N1CC[N+](C)(Cc2ccccc2)CC1` [Example 25, 1-benzyl-1-methyl-4-octadecanoyl-piperazin-1-ium bromide], for which the GI50 in test [1] came out at 0.4 µg/mL; in test [2], 0.82 µg/mL; in test [3] it was 2.84 µg/mL; in test [4], 1.05 µg/mL.

As for `C=CC[N+]1(C)CCN(C(=O)CCCCCCCCCCCCCCCCC)CC1` [Example 26, 1-allyl-1-methyl-4-octadecanoyl-piperazin-1-ium bromide], the GI50 came to 0.54 µg/mL in test [1], 1.13 µg/mL in test [2], 1.79 µg/mL in test [3] and 0.88 µg/mL in test [4].

On to `CCCCCCCCCCCCCCCCCC(=O)N1CC[N+](C)(CC)CC1` [Example 27, 1-ethyl-1-methyl-4-octadecanoyl-piperazin-1-ium iodide], for which the GI50 is 0.41 µg/mL in test [1], 1.43 µg/mL in test [2], 1.36 µg/mL in test [3] and 0.67 µg/mL in test [4].

Turning to `CCCCCCCCCCCCCCCCCC(=O)N1CC[N+](CC)(Cc2ccccc2)CC1` [Example 28, 1-benzyl-1-ethyl-4-octadecanoyl-piperazin-1-ium bromide], the GI50 in test [1] was 3.64 µg/mL; in test [2], over 10 µg/mL; in test [3], over 10 µg/mL; in test [4], 5.21 µg/mL.

`C=CC[N+]1(CC)CCN(C(=O)CCCCCCCCCCCCCCCCC)CC1` [Example 29, 1-allyl-1-ethyl-4-octadecanoyl-piperazin-1-ium bromide]: the GI50 in test [1] amounted to 0.84 µg/mL; in test [2] it was 2.51 µg/mL; in test [3] it was 2.43 µg/mL; in test [4], 1.37 µg/mL.

As for `CCCCCCCCCCCCCCCCCCCC(=O)N1CC[N+](C)(CC)CC1` [Example 30, 1-ethyl-4-icosanoyl-1-methylpiperazin-1-ium iodide], the GI50 in test [1] was 0.34 µg/mL; in test [2], 1.71 µg/mL; in test [3] it was 1.23 µg/mL; in test [4] it was 0.61 µg/mL.

Consider `CCCCCCCCCCCCCCCCCCCC(=O)N1CC[N+](C)(C)CC1` [Example 31, 4-icosanoyl-1,1-dimethylpiperazin-1-ium iodide], for which the GI50 in test [1] was found to be 0.31 µg/mL; in test [2] it was 1.63 µg/mL; in test [3] it was 1.39 µg/mL; in test [4], 0.42 µg/mL.

As to `CCCCCCCCCCCCCCCCCCCC(=O)N1CC[N+](C)(Cc2ccccc2)CC1` [Example 32, 1-benzyl-4-icosanoyl-1-methylpiperazin-1-ium bromide], the GI50 in test [1] was 0.59 µg/mL; in test [2], 1.66 µg/mL; in test [3], 1.89 µg/mL; in test [4], 1.1 µg/mL.

Consider `C=CC[N+]1(C)CCN(C(=O)CCCCCCCCCCCCCCCCCCC)CC1` [Example 33, 1-allyl-4-icosanoyl-1-methylpiperazin-1-ium bromide], for which the 50% growth inhibitory concentration (GI50) in test [1] is 4.29 µg/mL; in test [2], over 10 µg/mL; in test [3], over 10 µg/mL; in test [4] it was 3.45 µg/mL.

As to `CCCCCCCCCCCCCCCCCCCCCC(=O)N1CC[N+](C)(CC)CC1` [Example 34, 4-docosanoyl-1-ethyl-1-methylpiperazin-1-ium iodide], the GI50 in test [1] amounted to 0.85 µg/mL; in test [2] it was 2.01 µg/mL; in test [3] it was 1.9 µg/mL; in test [4] it was 1.22 µg/mL.

In the case of `CCCCCCCCCCCCCCCCCCCCCC(=O)N1CC[N+](C)(Cc2ccccc2)CC1` [Example 35, 1-benzyl-4-docosanoyl-1-methylpiperazin-1-ium bromide], the GI50 turned out to be 1.24 µg/mL in test [1], 1.98 µg/mL in test [2], 4.74 µg/mL in test [3] and 1.9 µg/mL in test [4].

Consider `C=CC[N+]1(C)CCN(C(=O)CCCCCCCCCCCCCCCCCCCCC)CC1` [Example 36, 1-allyl-4-docosanoyl-1-methylpiperazin-1-ium bromide], for which the GI50 turned out to be 0.96 µg/mL in test [1], 3.16 µg/mL in test [2], 2.37 µg/mL in test [3] and 1.53 µg/mL in test [4].

Take `CCCCCCCCCCCCCCCCCCCCCC(=O)N1CC[N+](CC)(Cc2ccccc2)CC1` [Example 37, 1-benzyl-4-docosanoyl-1-ethylpiperazin-1-ium bromide]: the GI50 in test [1], in test [2], in test [3] and in test [4] was over 10 µg/mL each time.

Take `C=CC[N+]1(CC)CCN(C(=O)CCCCCCCCCCCCCCCCCCCCC)CC1` [Example 38, 1-allyl-4-docosanoyl-1-ethylpiperazin-1-ium bromide]: the GI50 in test [1] was determined as 1.47 µg/mL; in test [2], 2.53 µg/mL; in test [3] it was 3.38 µg/mL; in test [4], 1.54 µg/mL.

Regarding `CCCCCCCCCCCCCCCCCCCCCCCC(=O)N1CC[N+](C)(Cc2ccccc2)CC1` [Example 40, 1-benzyl-1-methyl-4-tetracosanoylpiperazin-1-ium bromide], the GI50 is 4.79 µg/mL in test [1], over 10 µg/mL in test [2], over 10 µg/mL in test [3] and over 10 µg/mL in test [4].

Consider `C=CC[N+]1(C)CCN(C(=O)CCCCCCCCCCCCCCCCCCCCCCC)CC1` [Example 41, 1-allyl-1-methyl-4-tetracosanoylpiperazin-1-ium bromide], for which the concentration for 50% growth inhibition (GI50) was 3.36 µg/mL in test [1], over 10 µg/mL in test [2], over 10 µg/mL in test [3] and over 10 µg/mL in test [4].

For the compound `CCCCCCCCCCCCCCCCCCCCCCCC(=O)N1CC[N+](C)(CC)CC1` [Example 42, 1-ethyl-1-methyl-4-tetracosanoylpiperazin-1-ium iodide], the GI50 was 3.77 µg/mL in test [1], over 10 µg/mL in test [2], over 10 µg/mL in test [3] and over 10 µg/mL in test [4].

`C=CCCCCCCCCC(=O)N1CC[N+](C)(CC=C)CC1` [Example 43, 1-allyl-1-methyl-4-undec-10-enoyl-piperazin-1-ium bromide]: the GI50 in test [1] is 1.32 µg/mL; in test [2], over 10 µg/mL; in test [3], over 10 µg/mL; in test [4] it was over 10 µg/mL.

Regarding `C=CCCCCCCCCC(=O)N1CC[N+](C)(Cc2ccccc2)CC1` [Example 44, 1-benzyl-1-methyl-4-undec-10-enoyl-piperazin-1-ium bromide], the 50% growth inhibitory concentration (GI50) was 0.41 µg/mL in test [1], over 10 µg/mL in test [2], over 10 µg/mL in test [3] and over 10 µg/mL in test [4].

On to `C=CCCCCCCCCC(=O)N1CC[N+](C)(C)CC1` [Example 45, 1,1-dimethyl-4-undec-10-enoyl-piperazin-1-ium iodide], for which the GI50 in test [1] was 2.02 µg/mL; in test [2] it was over 10 µg/mL; in test [3] it was over 10 µg/mL; in test [4], over 10 µg/mL.

In the case of `CCCCCCCCCCCCCCCC(=O)N1CC[N+](CC)(Cc2cccc([N+](=O)[O-])c2)CC1` [Example 47, 1-ethyl-1-(3-nitrobenzyl)-4-palmitoylpiperazin-1-ium bromide], the GI50 in test [1] was 4.57 µg/mL; in test [2], over 10 µg/mL; in test [3], 5.13 µg/mL; in test [4] it was 3.64 µg/mL.

`CCCCCCCCCCCCCCCCCC(=O)N1CC[N+](CC)(Cc2ccc(F)cc2)CC1` [Example 48, 1-ethyl-1-(4-fluorobenzyl)-4-stearoylpiperazin-1-ium bromide]: the GI50 in test [1] stood at 0.68 µg/mL; in test [2], 1.49 µg/mL; in test [3], 1.43 µg/mL; in test [4] it was 1.19 µg/mL.

For `CCCCCCCCCCCCCCCCCC(=O)N1CC[N+](CC)(Cc2cccc([N+](=O)[O-])c2)CC1` [Example 49, 1-ethyl-1-(3-nitrobenzyl)-4-stearoylpiperazin-1-ium bromide], the GI50 in test [1] was determined as 3.14 µg/mL; in test [2], 5.38 µg/mL; in test [3], 3.08 µg/mL; in test [4] it was 3.63 µg/mL.

The record behind these values is patent publication US20100144708A1, “HETEROCYCLIC COMPOUNDS CONTAINING NITROGEN ATOMS OR PHARMACEUTICALLY ACCEPTABLE SALTS THEREOF, PROCESS FOR THE PREPARATION THEREOF AND PHARMACEUTICAL COMPOSITION COMPRISING THE SAME FOR TREATMENT OF CANCER” (Korea Research Instititute of Bioscience and Biotechnology, priority 2006, published 2010).
